Laboratory results as given in ChEMBL document CHEMBL5537164, “Discovery of Potent, Orally Bioavailable, Tricyclic NLRP3 Inhibitors” (J Med Chem, 2024).
In brackets after ≈: the same amount, converted by molar mass.

How the values were obtained:
[1] = Thermodynamic solubility of compound at pH 6.8; assay type: physicochemical; settings: buffer, read-out: Therm_solubility
[2] = Metabolic stability in human liver microsomes assessed as intrinsic clearance; assay type: ADME, Microsome; settings: read-out: CLH
[3] = Dose normalized AUC in Sprague-Dawley rat at 10 mg/kg, po measured after 24 hrs by LC-MS/MS analysis; assay type: ADME, organism-based; settings: in vivo
[4] = Drug metabolism in rat liver microsome assessed as thiophene oxidation mediated metabolite formation; assay type: ADME; settings: microsomes
[5] = Drug concentration in blood of C57BL/6 mouse model of acute peritonitis at 3 mg/kg, po preadministered with compound for 1 hrs followed by LPS stimulation for 2 hrs and measured 15 mins after ATP addition by HPLC-MS/MS analysis; assay type: ADME, organism-based; settings: whole blood, read-out: Ct
[6] = In vivo inhibition of NLRP3 in LPS/ATP-induced C57BL/6 mouse model of acute peritonitis assessed as reduction in IL-1beta level at 3 mg/kg, po preadministered with compound for 1 hrs followed by LPS stimulation for 2 hrs and measured 15 mins after ATP addition by ELISA relative to control; assay type: functional; settings: time 3.25 hrs
[7] = In vivo inhibition of NLRP3 in LPS/ATP-induced C57BL/6 mouse model of acute peritonitis assessed as reduction in IL-1beta level at 10 mg/kg, po preadministered with compound for 1 hrs followed by LPS stimulation for 2 hrs and measured 15 mins after ATP addition by ELISA relative to control; assay type: functional; settings: time 3.25 hrs
[8] = target: Cytochrome P450 2C9 (Homo sapiens, UniProt P11712); test: Inhibition of CYP2C9 (unknown origin); assay type: ADME
Cytochrome P450 2C9, sequence (P11712 whole entry): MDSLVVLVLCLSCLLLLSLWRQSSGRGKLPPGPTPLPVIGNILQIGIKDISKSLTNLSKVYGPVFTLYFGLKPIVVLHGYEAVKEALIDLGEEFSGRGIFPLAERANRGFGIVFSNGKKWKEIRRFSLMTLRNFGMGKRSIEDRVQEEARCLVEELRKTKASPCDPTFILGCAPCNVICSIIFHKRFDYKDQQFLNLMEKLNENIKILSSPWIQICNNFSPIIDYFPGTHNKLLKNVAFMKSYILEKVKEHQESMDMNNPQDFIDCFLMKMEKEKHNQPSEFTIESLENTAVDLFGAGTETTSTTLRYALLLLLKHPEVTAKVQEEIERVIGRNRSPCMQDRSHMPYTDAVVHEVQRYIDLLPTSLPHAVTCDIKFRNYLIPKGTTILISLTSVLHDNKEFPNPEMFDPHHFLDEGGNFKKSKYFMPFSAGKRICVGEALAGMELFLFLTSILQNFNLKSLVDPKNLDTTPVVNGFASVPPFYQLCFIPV

[9] = AUC (0 to infinity) in C57BL/6 mouse at 3 mg/kg, po measured after 24 hrs by LC-MS/MS analysis; assay type: ADME, organism-based; settings: in vivo
[10] = Metabolic stability in mouse liver microsomes assessed as intrinsic clearance; assay type: ADME, Microsome; settings: read-out: CLH
[11] = target: Cytochrome P450 3A4 (Homo sapiens, UniProt P08684); test: Inhibition of CYP3A4 (unknown origin); assay type: ADME
Cytochrome P450 3A4, sequence (P08684 whole entry): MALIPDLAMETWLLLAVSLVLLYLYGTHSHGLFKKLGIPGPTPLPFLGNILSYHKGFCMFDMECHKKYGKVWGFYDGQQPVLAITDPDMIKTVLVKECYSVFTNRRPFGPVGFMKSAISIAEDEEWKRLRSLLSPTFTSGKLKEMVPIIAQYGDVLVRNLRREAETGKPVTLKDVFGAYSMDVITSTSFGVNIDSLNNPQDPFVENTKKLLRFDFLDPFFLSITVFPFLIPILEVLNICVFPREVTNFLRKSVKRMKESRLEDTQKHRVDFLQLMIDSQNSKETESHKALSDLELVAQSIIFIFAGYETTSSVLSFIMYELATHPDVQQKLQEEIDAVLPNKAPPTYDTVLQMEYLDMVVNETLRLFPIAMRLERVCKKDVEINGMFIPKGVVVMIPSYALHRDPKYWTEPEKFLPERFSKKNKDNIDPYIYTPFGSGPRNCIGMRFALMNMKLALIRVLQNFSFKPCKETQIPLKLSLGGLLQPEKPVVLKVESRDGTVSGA

[12] = Protein binding in dog plasma; assay type: ADME, cell-free, Canis lupus familiaris; settings: read-out: PPB (converted)
[13] = In vivo inhibition of NLRP3 in LPS/ATP-induced C57BL/6 mouse model of acute peritonitis assessed as reduction in IL-1beta level at 50 mg/kg, po preadministered with compound for 1 hrs followed by LPS stimulation for 2 hrs and measured 15 mins after ATP addition by ELISA relative to control; assay type: functional; settings: time 3.25 hrs
[14] = target: Synaptic vesicular amine transporter (Homo sapiens, UniProt Q05940); test: Inhibition of VMAT-2 (unknown origin)
Synaptic vesicular amine transporter, sequence (Q05940 whole entry): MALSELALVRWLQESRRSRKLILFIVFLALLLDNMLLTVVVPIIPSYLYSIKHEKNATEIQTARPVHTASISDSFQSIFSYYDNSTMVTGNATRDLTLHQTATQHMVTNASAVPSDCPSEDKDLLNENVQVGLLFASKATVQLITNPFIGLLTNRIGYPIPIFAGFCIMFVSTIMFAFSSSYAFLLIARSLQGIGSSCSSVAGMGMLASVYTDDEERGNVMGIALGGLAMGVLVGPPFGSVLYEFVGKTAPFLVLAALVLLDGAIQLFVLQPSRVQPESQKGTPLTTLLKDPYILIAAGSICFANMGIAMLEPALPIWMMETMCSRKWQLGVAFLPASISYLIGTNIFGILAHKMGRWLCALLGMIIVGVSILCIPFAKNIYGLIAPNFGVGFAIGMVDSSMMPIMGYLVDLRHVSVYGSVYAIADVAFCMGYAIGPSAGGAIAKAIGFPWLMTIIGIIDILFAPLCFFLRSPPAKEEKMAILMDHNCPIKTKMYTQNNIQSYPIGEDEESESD

[15] = Oral bioavailability in Beagle dog at 1 mg/kg measured after 24 hrs by LC-MS/MS analysis; assay type: ADME, organism-based, Canis lupus familiaris; settings: in vivo
[16] = Oral bioavailability in C57BL/6 mouse at 3 mg/kg measured after 24 hrs by LC-MS/MS analysis; assay type: ADME, organism-based; settings: in vivo
[17] = Half-life in Sprague-Dawley rat at 10 mg/kg, po or 1 mg/kg, iv measured after 24 hrs by LC-MS/MS analysis; assay type: ADME, organism-based; settings: in vivo
[18] = Protein binding in rat plasma; assay type: ADME, cell-free; settings: read-out: PPB (converted)
[19] = Clearance in C57BL/6 mouse assessed as hepatic blood flow at 3 mg/kg, po or 1 mg/kg, iv measured after 24 hrs by LC-MS/MS analysis; assay type: ADME, organism-based, Liver; settings: in vivo
[20] = Clearance in mouse liver microsomes; assay type: ADME, Microsome; settings: read-out: CLH
[21] = Protein binding in human plasma; assay type: ADME, cell-free; settings: read-out: PPB (converted)
[22] = target: Nuclear factor NF-kappa-B complex (Homo sapiens, UniProt P19838+Q00653+Q04206); test: Inhibition of NF-kappaB in PMA-differentiated human THP-1 cells assessed as reduction in TNF-alpha release preincubated with compound for 1 hrs followed by Pam3CSK4 stimulation and measured after 3 hrs by HTRF assay; assay type: cell-based
Nuclear factor NF-kappa-B complex, sequence (P19838 1-433 limits assumed): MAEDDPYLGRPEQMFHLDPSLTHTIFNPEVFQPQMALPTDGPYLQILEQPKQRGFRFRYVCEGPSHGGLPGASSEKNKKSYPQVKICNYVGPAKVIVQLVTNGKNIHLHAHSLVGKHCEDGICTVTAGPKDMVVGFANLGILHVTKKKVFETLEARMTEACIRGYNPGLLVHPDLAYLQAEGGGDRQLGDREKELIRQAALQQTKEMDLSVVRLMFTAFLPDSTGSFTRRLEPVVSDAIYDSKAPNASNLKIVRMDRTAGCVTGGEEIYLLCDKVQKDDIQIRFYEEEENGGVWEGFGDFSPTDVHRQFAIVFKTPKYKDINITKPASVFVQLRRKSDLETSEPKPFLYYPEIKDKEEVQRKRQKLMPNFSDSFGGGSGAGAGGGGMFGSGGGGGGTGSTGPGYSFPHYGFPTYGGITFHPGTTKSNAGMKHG
Nuclear factor NF-kappa-B complex, sequence (Q00653 1-454 limits assumed): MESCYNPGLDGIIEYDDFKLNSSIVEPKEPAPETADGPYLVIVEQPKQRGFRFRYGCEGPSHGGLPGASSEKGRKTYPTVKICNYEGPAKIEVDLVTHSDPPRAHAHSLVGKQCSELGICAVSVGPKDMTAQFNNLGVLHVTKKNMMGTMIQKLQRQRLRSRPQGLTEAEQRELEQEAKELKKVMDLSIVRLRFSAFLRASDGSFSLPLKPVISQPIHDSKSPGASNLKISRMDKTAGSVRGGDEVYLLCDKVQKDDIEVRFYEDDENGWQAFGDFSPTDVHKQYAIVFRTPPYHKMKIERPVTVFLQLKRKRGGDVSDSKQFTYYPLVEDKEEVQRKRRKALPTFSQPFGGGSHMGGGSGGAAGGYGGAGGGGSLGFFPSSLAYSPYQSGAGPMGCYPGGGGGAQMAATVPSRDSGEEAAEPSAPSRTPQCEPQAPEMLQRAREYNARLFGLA
Nuclear factor NF-kappa-B complex, sequence (Q04206 whole entry): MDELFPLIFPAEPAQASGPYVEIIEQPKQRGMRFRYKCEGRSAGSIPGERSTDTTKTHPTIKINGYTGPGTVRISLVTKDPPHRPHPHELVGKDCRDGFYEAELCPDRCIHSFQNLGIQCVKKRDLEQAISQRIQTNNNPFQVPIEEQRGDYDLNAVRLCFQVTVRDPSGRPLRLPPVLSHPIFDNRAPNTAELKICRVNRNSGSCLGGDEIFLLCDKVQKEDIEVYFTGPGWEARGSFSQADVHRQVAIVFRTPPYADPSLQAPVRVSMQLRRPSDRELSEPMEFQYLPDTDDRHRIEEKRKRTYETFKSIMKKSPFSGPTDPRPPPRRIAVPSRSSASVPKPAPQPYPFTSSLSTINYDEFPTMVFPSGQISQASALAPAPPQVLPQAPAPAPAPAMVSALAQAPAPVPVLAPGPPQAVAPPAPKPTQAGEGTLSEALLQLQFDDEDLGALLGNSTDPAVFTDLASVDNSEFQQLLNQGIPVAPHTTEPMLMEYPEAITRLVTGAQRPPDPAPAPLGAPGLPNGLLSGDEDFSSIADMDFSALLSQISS

[23] = Clearance in Sprague-Dawley rat assessed as hepatic blood flow at 10 mg/kg, po or 1 mg/kg, iv measured after 24 hrs by LC-MS/MS analysis; assay type: ADME, organism-based, Liver; settings: in vivo
[24] = target: Voltage-gated inwardly rectifying potassium channel KCNH2 (Homo sapiens, UniProt Q12809); test: Displacement of [3H]-dofetilide from human ERG; assay type: toxicity
Voltage-gated inwardly rectifying potassium channel KCNH2, sequence (Q12809 whole entry): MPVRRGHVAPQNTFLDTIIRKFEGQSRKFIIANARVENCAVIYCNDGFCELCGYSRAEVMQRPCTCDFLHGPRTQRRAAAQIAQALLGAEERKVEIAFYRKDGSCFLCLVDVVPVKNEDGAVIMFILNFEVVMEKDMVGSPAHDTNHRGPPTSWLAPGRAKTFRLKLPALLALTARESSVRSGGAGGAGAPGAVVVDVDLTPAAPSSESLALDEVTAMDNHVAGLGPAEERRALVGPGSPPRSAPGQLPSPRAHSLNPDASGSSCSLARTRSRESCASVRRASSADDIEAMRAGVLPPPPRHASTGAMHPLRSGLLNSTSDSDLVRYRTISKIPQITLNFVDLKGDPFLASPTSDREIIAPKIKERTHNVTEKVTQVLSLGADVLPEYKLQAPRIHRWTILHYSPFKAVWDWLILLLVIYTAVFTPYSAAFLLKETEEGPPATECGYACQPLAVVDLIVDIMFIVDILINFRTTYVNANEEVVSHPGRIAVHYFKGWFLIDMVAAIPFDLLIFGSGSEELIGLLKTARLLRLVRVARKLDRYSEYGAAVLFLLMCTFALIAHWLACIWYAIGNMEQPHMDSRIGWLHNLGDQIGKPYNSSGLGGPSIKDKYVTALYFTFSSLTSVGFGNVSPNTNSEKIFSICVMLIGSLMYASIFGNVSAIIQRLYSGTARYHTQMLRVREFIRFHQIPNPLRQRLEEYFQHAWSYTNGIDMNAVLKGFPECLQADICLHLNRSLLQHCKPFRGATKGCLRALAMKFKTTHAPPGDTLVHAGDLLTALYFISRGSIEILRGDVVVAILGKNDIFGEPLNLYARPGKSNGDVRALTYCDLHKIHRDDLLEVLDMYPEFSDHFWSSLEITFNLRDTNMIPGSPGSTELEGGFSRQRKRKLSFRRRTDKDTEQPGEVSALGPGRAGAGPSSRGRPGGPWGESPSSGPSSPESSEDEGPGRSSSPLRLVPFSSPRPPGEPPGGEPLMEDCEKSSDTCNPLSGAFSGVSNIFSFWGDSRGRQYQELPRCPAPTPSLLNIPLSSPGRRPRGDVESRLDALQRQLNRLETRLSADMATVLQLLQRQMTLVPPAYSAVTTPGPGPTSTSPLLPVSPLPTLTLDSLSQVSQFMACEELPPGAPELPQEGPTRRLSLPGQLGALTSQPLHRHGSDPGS

[25] = Oral bioavailability in C57BL/6 mouse measured after 24 hrs by LC-MS/MS analysis; assay type: ADME, organism-based; settings: in vivo
[26] = target: Cytochrome P450 2D6 (Homo sapiens, UniProt P10635); test: Inhibition of CYP2D6 (unknown origin); assay type: ADME
Cytochrome P450 2D6, sequence (P10635 whole entry): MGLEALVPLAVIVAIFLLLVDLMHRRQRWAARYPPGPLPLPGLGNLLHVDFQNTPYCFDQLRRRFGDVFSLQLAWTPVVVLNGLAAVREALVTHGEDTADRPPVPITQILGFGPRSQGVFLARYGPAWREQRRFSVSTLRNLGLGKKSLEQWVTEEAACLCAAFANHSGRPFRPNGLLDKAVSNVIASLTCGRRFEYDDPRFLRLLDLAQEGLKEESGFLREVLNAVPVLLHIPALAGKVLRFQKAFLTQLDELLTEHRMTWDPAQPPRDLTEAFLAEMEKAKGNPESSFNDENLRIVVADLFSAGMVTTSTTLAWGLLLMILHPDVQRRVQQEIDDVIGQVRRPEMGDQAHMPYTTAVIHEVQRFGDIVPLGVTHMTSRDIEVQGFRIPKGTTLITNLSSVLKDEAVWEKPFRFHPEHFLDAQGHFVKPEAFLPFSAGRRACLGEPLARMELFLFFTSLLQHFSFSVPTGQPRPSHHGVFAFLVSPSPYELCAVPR

[27] = Volume of distribution at steady state in Sprague-Dawley rat at 10 mg/kg, po or 1 mg/kg, iv measured after 24 hrs by LC-MS/MS analysis; assay type: ADME, organism-based; settings: in vivo
[28] = Drug metabolism in dog liver microsomes assessed as N-demethylation of piperidine ring mediated metabolite formation; assay type: ADME, Canis lupus familiaris, Microsome
[29] = Drug concentration in blood of C57BL/6 mouse model of acute peritonitis at 100 mg/kg, po preadministered with compound for 1 hrs followed by LPS stimulation for 2 hrs and measured 15 mins after ATP addition by HPLC-MS/MS analysis; assay type: ADME, organism-based; settings: whole blood, read-out: Ct
[30] = Volume of distribution at steady state in Beagle dog at 1 mg/kg, po or 0.1 mg/kg, iv measured after 24 hrs by LC-MS/MS analysis; assay type: ADME, organism-based, Canis lupus familiaris; settings: in vivo
[31] = Dose normalized AUC in Beagle dog at 1 mg/kg, po measured after 24 hrs by LC-MS/MS analysis; assay type: ADME, organism-based, Canis lupus familiaris; settings: in vivo
[32] = Drug concentration in blood of C57BL/6 mouse model of acute peritonitis at 50 mg/kg, po preadministered with compound for 1 hrs followed by LPS stimulation for 2 hrs and measured 15 mins after ATP addition by HPLC-MS/MS analysis; assay type: ADME, organism-based; settings: whole blood, read-out: Ct
[33] = Oral bioavailability in Sprague-Dawley rat at 10 mg/kg measured after 24 hrs by LC-MS/MS analysis; assay type: ADME, organism-based; settings: in vivo
[34] = Clearance in rat liver microsomes; assay type: ADME, Microsome; settings: read-out: CLH
[35] = Drug concentration in blood of C57BL/6 mouse model of acute peritonitis at 30 mg/kg, po preadministered with compound for 1 hrs followed by LPS stimulation for 2 hrs and measured 15 mins after ATP addition by HPLC-MS/MS analysis; assay type: ADME, organism-based; settings: whole blood, read-out: Ct
[36] = Protein binding in mouse plasma; assay type: ADME, cell-free; settings: read-out: PPB (converted)
[37] = Drug metabolism in dog liver microsome assessed as thiophene oxidation mediated metabolite formation; assay type: ADME, Canis lupus familiaris; settings: microsomes
[38] = Clearance in human liver microsomes; assay type: ADME, Microsome; settings: read-out: CLH
[39] = Half-life in C57BL/6 mouse at 3 mg/kg, po or 1 mg/kg, iv measured after 24 hrs by LC-MS/MS analysis; assay type: ADME, organism-based; settings: in vivo
[40] = Volume of distribution at steady state in C57BL/6 mouse at 3 mg/kg, po or 1 mg/kg, iv measured after 24 hrs by LC-MS/MS analysis; assay type: ADME, organism-based; settings: in vivo
[41] = In vivo inhibition of NLRP3 in LPS/ATP-induced C57BL/6 mouse model of acute peritonitis assessed as reduction in IL-1beta level at 100 mg/kg, po preadministered with compound for 1 hrs followed by LPS stimulation for 2 hrs and measured 15 mins after ATP addition by ELISA relative to control; assay type: functional; settings: time 3.25 hrs
[42] = Clearance in Beagle dog assessed as hepatic blood flow at 1 mg/kg, po or 0.1 mg/kg, iv measured after 24 hrs by LC-MS/MS analysis; assay type: ADME, organism-based, Canis lupus familiaris, Liver; settings: in vivo
[43] = Clearance in dog liver microsomes; assay type: ADME, Canis lupus familiaris, Microsome; settings: read-out: CLH

CN1CCC[C@@H](NC(=O)Cn2nc(C(C)(C)O)n3c(cc4sc(Cl)cc43)c2=O)C1
solubility thermodynamic [1]: 159 µg/mL (≈ 363 µM)
microsomal CLint [2]: 38 µL/min/mg
AUC/dose [3]: 712 nmol·h/L
Drug metabolism [4]: Metabolite_Notdetected
concentration at 3.25 h [5]: 70 nM
inhibition in vivo at 3 mg/kg [6]: 34%
inhibition in vivo at 10 mg/kg [7]: 45%
IC50 [8]: > 25 µM
AUC(0-inf) [9]: 0.718 µM·h
microsomal CLint [10]: 103 µL/min/mg
IC50 [11]: > 25 µM
fraction unbound [12]: 0.17
inhibition in vivo at 50 mg/kg [13]: 90%
IC50 [14]: 6.5 µM
bioavailability [15]: 89%
bioavailability [16]: 36%
half-life [17]: 3.5 h
fraction unbound [18]: 0.22
LBF [19]: 40%
microsomal CLint [20]: 103 µL/min/mg
fraction unbound [21]: 0.15
IC50 [22]: > 100 µM
LBF [23]: 40%
IC50 [24]: > 30 µM
bioavailability [25]: 36%
IC50 [26]: > 25 µM
Vdss [27]: 5.5 L/kg
Drug metabolism [28]: Metabolite_Detected
concentration at 3.25 h [29]: 3670 nM
Vdss [30]: 4.1 L/kg
AUC/dose [31]: 2530 nmol·h/L
concentration at 3.25 h [32]: 1680 nM
bioavailability [33]: 63%
microsomal CLint [34]: 100 µL/min/mg
concentration at 3.25 h [35]: 1060 nM
fraction unbound [36]: 0.03
Drug metabolism [37]: Metabolite_Notdetected
microsomal CLint [38]: 37 µL/min/mg
half-life [39]: 1 h
Vdss [40]: 3.9 L/kg
inhibition in vivo at 100 mg/kg [41]: 98%
LBF [42]: 40%
microsomal CLint [43]: 39 µL/min/mg
